Results from ChEMBL document CHEMBL3525930 (Drug Metab Dispos, 2012).

Columns and labels:
Hepatocyte [1] = test: Cytotoxicity against human hepatocytes assessed as cell viability relative to control; format: cell-based
[2] = Total Cmax in human; format: ADME, organism-based; conditions: in vivo
[3] = Chemical stability of the compound in PBS buffer assessed as compound remaining at pH 7.4 after 10 mins; format: physicochemical; conditions: read-out: Stability
[4] = target: Nuclear receptor subfamily 1 group I member 2 (Homo sapiens, UniProt O75469); test: Activation of human PXR expressed in human LS174T cells; format: ADME, cell-based
Sequence of Nuclear receptor subfamily 1 group I member 2 (O75469 whole entry): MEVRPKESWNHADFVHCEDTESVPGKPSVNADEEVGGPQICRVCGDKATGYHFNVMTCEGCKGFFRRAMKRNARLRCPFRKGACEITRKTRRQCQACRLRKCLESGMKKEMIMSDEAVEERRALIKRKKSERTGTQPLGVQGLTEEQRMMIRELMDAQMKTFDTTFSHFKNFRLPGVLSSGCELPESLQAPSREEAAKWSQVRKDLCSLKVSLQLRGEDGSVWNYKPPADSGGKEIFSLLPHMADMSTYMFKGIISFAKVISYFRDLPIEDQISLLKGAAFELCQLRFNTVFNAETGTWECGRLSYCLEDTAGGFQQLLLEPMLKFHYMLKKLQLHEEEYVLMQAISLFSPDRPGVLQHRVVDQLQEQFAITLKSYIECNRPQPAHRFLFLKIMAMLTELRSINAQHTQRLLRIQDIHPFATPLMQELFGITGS

Homo sapiens = species: Homo sapiens; test: Unbound Cmax in human; format: ADME, organism-based; conditions: in vivo
[5] = Chemical stability of the compound in human hepatocyte culture medium assessed as compound remaining at 1 to 50 uM after 24 hrs; format: physicochemical; conditions: read-out: Stability
CYP3A5 = test: Induction of CYP3A5 mRNA expression in human hepatocytes at 10 uM after 72 hrs by RT-PCR analysis relative to vehicle-treated control
Cytochrome P450 3A4 [6] = target: T1, Cytochrome P450 3A4 (Homo sapiens, UniProt P08684); test: (§1) Induction of CYP3A4 in human hepatocytes at 10 uM after 72 hrs relative to vehicle-treated control; conditions: 72 h, 10 µM
T1 sequence (P08684 whole entry): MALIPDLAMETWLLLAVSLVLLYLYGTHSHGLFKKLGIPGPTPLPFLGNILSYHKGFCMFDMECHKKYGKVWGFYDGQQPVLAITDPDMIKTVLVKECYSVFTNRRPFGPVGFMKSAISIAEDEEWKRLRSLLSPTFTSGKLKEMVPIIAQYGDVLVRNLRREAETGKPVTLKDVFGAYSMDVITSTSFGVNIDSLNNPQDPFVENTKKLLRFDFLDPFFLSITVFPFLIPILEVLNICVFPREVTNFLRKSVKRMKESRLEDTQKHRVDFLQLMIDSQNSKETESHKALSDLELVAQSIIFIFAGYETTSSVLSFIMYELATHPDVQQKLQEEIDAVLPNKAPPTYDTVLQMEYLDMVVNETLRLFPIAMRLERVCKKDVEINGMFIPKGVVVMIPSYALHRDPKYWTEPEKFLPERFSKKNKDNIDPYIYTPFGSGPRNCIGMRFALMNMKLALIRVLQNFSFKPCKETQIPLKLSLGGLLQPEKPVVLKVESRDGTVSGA

CYP3A4 [7] = target: CYP3A4 (Homo sapiens, UniProt P08684); test: as §1
Sequence of CYP3A4 (Homo sapiens, UniProt P08684) (P08684 whole entry): as above

CYP2C8 = test: Induction of CYP2C8 mRNA expression in human hepatocytes at 10 uM after 72 hrs by RT-PCR analysis relative to vehicle-treated control; format: ADME, cell-based, Hepatocyte; conditions: read-out: FC
MRP1 = test: Induction of MRP1 mRNA expression in human hepatocytes at 10 uM after 72 hrs by RT-PCR analysis relative to vehicle-treated control; format: cell-based, Hepatocyte; conditions: read-out: FC
Cytochrome P450 3A4 [8] = target: T1, Cytochrome P450 3A4; test: Inhibition of CYP3A4 in human liver microsomes incubated for 3 mins prior to NADPH addition measured after 3 mins by LC-MS analysis; format: ADME
CYP2C9 [9] = target: CYP2C9 (Homo sapiens, UniProt P11712); test: Induction of CYP2C9 in human hepatocytes at 10 uM after 72 hrs relative to vehicle-treated control; format: ADME, cell-based, Hepatocyte; conditions: read-out: FC
Sequence of CYP2C9 (Homo sapiens, UniProt P11712) (P11712 whole entry): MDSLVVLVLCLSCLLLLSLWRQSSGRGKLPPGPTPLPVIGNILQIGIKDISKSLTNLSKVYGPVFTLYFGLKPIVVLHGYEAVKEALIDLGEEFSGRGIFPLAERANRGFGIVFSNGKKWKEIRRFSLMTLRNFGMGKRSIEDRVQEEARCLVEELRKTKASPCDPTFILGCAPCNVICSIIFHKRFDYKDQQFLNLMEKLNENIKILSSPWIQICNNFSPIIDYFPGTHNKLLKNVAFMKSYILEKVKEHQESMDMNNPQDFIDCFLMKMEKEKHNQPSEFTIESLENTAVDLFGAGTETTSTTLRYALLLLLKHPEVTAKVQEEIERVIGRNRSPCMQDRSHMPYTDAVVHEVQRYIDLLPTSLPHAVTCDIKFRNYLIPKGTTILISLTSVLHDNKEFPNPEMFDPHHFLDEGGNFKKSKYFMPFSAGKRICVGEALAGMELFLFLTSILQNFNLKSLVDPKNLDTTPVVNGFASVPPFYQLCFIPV

Cytochrome P450 3A4 [10] = target: T1, Cytochrome P450 3A4; test: Inhibition of recombinant CYP3A4 (unknown origin) incubated for 3 mins prior to NADPH addition measured after 3 mins by LC-MS analysis; format: ADME
CYP2B6 [11] = target: CYP2B6 (Homo sapiens, UniProt P20813); test: (§2) Induction of CYP2B6 in human hepatocytes at 10 uM after 72 hrs relative to vehicle-treated control; format: ADME, cell-based, Hepatocyte; conditions: read-out: FC
Cytochrome P450 2B6 [12] = target: T2, Cytochrome P450 2B6 (Homo sapiens, UniProt P20813); test: as §2; format: ADME, cell-based, Hepatocyte; conditions: 72 h, 10 µM
T2 sequence (P20813 whole entry): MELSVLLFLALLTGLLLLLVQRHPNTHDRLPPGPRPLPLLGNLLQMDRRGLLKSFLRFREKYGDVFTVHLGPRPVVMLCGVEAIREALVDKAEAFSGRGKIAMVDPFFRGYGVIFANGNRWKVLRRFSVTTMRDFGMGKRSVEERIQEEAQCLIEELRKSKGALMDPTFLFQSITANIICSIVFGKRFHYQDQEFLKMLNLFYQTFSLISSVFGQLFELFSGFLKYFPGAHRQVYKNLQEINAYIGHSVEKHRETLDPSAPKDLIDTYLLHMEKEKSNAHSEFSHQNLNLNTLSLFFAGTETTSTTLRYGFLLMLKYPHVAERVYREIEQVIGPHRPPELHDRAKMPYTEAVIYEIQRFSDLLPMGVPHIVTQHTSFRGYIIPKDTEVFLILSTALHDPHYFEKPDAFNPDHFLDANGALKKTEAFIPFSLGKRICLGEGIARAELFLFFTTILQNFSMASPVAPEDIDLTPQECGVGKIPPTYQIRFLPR

CYP2E1 = test: Induction of CYP2E1 mRNA expression in human hepatocytes at 10 uM after 72 hrs by RT-PCR analysis relative to vehicle-treated control; format: ADME, cell-based, Hepatocyte; conditions: read-out: FC
Cytochrome P450 2B6 [13] = target: T2, Cytochrome P450 2B6; test: Inhibition of CYP2B6 in human liver microsomes incubated for 3 mins prior to NADPH addition measured after 10 mins by LC-MS analysis; format: ADME
UGT1A9 = test: Induction of UGT1A9 mRNA expression in human hepatocytes at 10 uM after 72 hrs by RT-PCR analysis relative to vehicle-treated control; format: ADME, cell-based, Hepatocyte; conditions: read-out: FC
CYP2D6 = test: Induction of CYP2D6 mRNA expression in human hepatocytes at 10 uM after 72 hrs by RT-PCR analysis relative to vehicle-treated control; format: ADME, cell-based, Hepatocyte; conditions: read-out: FC
MRP2 = test: Induction of MRP2 mRNA expression in human hepatocytes at 10 uM after 72 hrs by RT-PCR analysis relative to vehicle-treated control; format: cell-based, Hepatocyte; conditions: read-out: FC
MDR1 = test: Induction of MDR1 mRNA expression in human hepatocytes at 10 uM after 72 hrs by RT-PCR analysis relative to vehicle-treated control; format: ADME, cell-based, Hepatocyte; conditions: read-out: FC
CYP2A6 = test: Induction of CYP2A6 mRNA expression in human hepatocytes at 10 uM after 72 hrs by RT-PCR analysis relative to vehicle-treated control; format: ADME, cell-based, Hepatocyte; conditions: read-out: FC
CYP2C9 [14] = test: Induction of CYP2C9 mRNA expression in human hepatocytes at 10 uM after 72 hrs by RT-PCR analysis relative to vehicle-treated control; format: ADME, cell-based, Hepatocyte; conditions: read-out: FC
UGT2B7 = test: Induction of UGT2B7 mRNA expression in human hepatocytes at 10 uM after 72 hrs by RT-PCR analysis relative to vehicle-treated control; format: ADME, cell-based, Hepatocyte; conditions: read-out: FC
Hepatocyte [15] = test: (§3) Induction of CYP3A4 mRNA expression in human hepatocytes at 10 uM after 72 hrs by RT-PCR analysis relative to vehicle-treated control; conditions: 72 h, 10 µM
CYP3A4 [16] = test: as §3
Hepatocyte [17] = test: (§4) Induction of CYP2B6 mRNA expression in human hepatocytes at 10 uM after 72 hrs by RT-PCR analysis relative to vehicle-treated control; format: ADME, cell-based; conditions: 72 h, 10 µM
CYP2B6 [18] = test: as §4; format: ADME, cell-based, Hepatocyte; conditions: read-out: FC
CYP1A2 = test: Induction of CYP1A2 mRNA expression in human hepatocytes at 10 uM after 72 hrs by RT-PCR analysis relative to vehicle-treated control; format: ADME, cell-based, Hepatocyte; conditions: read-out: FC
Cytochrome P450 2B6 [19] = target: T2, Cytochrome P450 2B6; test: Inhibition of recombinant CYP2B6 (unknown origin) incubated for 3 mins prior to NADPH addition measured after 10 mins by LC-MS analysis; format: ADME
CYP2C19 = test: Induction of CYP2C19 mRNA expression in human hepatocytes at 10 uM after 72 hrs by RT-PCR analysis relative to vehicle-treated control; format: ADME, cell-based, Hepatocyte; conditions: read-out: FC

Compound `CO[C@H]1/C=C/O[C@@]2(C)Oc3c(C)c(O)c4c(O)c(c(/C=N/N5CCN(C)CC5)c(O)c4c3C2=O)NC(=O)/C(C)=C\C=C\[C@H](C)[C@H](O)[C@@H](C)[C@@H](O)[C@@H](C)[C@H](OC(C)=O)[C@@H]1C` [RIFAMPIN] has an Activity (Hepatocyte [1]) of under 50 µM.

`C[C@@H]1CC[C@H]2[C@@H](C)C(=O)O[C@@H]3O[C@@]4(C)CC[C@@H]1[C@]32OO4` [ARTEMISININ] showed a Cmax [2] of 1600 nM, a remaining at 10 min [3] of under 15% and an EC50 [4] of 30 µM. It also gave a fCmax (Homo sapiens) of 0.58 µM, a remaining at 24 h, up to 50 µM [5] of 38% and an Activity (Hepatocyte [1]) of under 50 µM.

Work on `C[C@H]1[C@@H](O)O[C@@H]2O[C@@]3(C)CC[C@H]4[C@H](C)CC[C@@H]1[C@@]24OO3` [ARTENIMOL] yielded a fold induction at 72 h, 10 µM (CYP3A5) of 1, an Activity (Cytochrome P450 3A4 [6]) of 5.2% and a fold induction at 72 h, 10 µM (CYP3A4 [7]) of 2.1. For the same compound, the fold induction at 72 h, 10 µM (CYP2C8) was 0.8, the fold induction at 72 h, 10 µM (MRP1) was 0.8 and the IC50 (Cytochrome P450 3A4 [8]) was over 125 µM. For the same compound, the fold induction at 72 h, 10 µM (CYP2C9 [9]) was 1.2, the IC50 (Cytochrome P450 3A4 [10]) was over 125 µM and the fold induction at 72 h, 10 µM (CYP2B6 [11]) was 2.9. The Activity (Cytochrome P450 2B6 [12]) was 11.3%, the fold induction at 72 h, 10 µM (CYP2E1) was 0.6 and the IC50 (Cytochrome P450 2B6 [13]) was over 125 µM. It also gave a fold induction at 72 h, 10 µM (UGT1A9) of 1.4, a remaining at 24 h, up to 50 µM [5] of 8% and a fold induction at 72 h, 10 µM (CYP2D6) of 0.7. For the same compound, the fold induction at 72 h, 10 µM (MRP2) was 0.8, the fold induction at 72 h, 10 µM (MDR1) was 1 and the Activity (Hepatocyte [1]) was 50 µM. For the same compound, the fold induction at 72 h, 10 µM (CYP2A6) was 2.2, the fold induction at 72 h, 10 µM (CYP2C9 [14]) was 1 and the fold induction at 72 h, 10 µM (UGT2B7) was 0.7. The Activity (Hepatocyte [15]) was 7.7%, the fold induction at 72 h, 10 µM (CYP3A4 [16]) was 3.4 and the Activity (Hepatocyte [17]) was 13.9%. For the same compound, the fold induction at 72 h, 10 µM (CYP2B6 [18]) was 3.5, the fold induction at 72 h, 10 µM (CYP1A2) was 1.1 and the IC50 (Cytochrome P450 2B6 [19]) was over 125 µM. The fold induction at 72 h, 10 µM (CYP2C19) was 1.3.
